The values below come from patent US20170121344A1 (Siga Technologies, Inc., priority 2009, published 2017).

The structures appear in SMILES notation. Bounds are passed on as bounds.

In general, EC50 refers to the concentration giving half of the maximal effect.

The first test relates to Dengue-2 (Strain New Guinea C). The test is described as follows: Viral yield assay against Dengue-2 in Vero cells. Format: cell-based, Dengue virus. The settings on record: Dengue virus, Vero, 48 h, read-out: Activity (EC50 class) against Dengue-2 Virus in Vero cells. The method, boiled down:
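Yield reduction, Vero; MOI 0.1; compound vs DMSO; 37° C; harvest 48 h p.i.; titer on Vero; EC50 fitted. Other serotypes run the same way.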
With `N#Cc1cc2c(N)c(C(=O)Nc3ccccc3Br)sc2nc1N` [Compound 134, 3,6-Diamino-5-cyano-thieno[2,3-b]pyridine-2-carboxylic acid (2-bromo-phenyl)-amide], the EC50 was above 25 µM.

Take `CCN(CC)C(=O)c1sc2nc3c(cc2c1N)CCC3` [Compound 138, 3-Amino-6,7-dihydro-5H-cyclopenta[b]thieno[3,2-e]pyridine-2-carboxylic acid diethylamide]: the EC50 was above 25 µM.

`Nc1c(C(=O)N2CCOCC2)sc2nc3c(cc12)CCCCC3` [Compound 139, (3-Amino-6,7,8,9-tetrahydro-5H-1-thia-10-aza-cyclohepta[f]inden-2-yl)-morpholin-4-yl-methanone]: the EC50 was above 25 µM.

As for `COCc1cc(C)nc2sc(C(=O)N(c3ccccc3)c3ccccc3)c(N)c12` [Compound 140, 3-Amino-4-methoxymethyl-6-methyl-thieno[2,3-b]pyridine-2-carboxylic acid diphenylamide], the EC50 is above 25 µM.

Consider `COCc1cc(C)nc2sc(C(=O)Nc3cc(Br)cc4cccnc34)c(N)c12` [Compound 146, 3-Amino-4-methoxymethyl-6-methyl-thieno[2,3-b]pyridine-2-carboxylic acid (6-bromo-quinolin-8-yl)-amide], for which the EC50 is above 25 µM.

Take `Cc1cc(C(F)(F)F)c2c(N)c(C(=O)Nc3cccc(C(F)(F)F)c3)sc2n1` [Compound 149, 3-Amino-6-methyl-4-trifluoromethyl-thieno[2,3-b]pyridine-2-carboxylic acid (3-trifluoromethyl-phenyl)-amide]: the EC50 was above 25 µM.

Consider `COCc1cc(C)nc2sc3c(=O)n(-c4cccc5ccccc45)nnc3c12` [Compound 150, 9-Methoxymethyl-7-methyl-3-naphthalen-1-yl-3H-pyrido[3′,2′:4,5]thieno[3,2-d][1,2,3]triazin-4-one], for which the EC50 is above 25 µM.

Regarding `Cc1nc2sc(C(=O)Nc3ccc(Br)cc3)c(N)c2c(C)c1C` [Compound 157, 3-Amino-4,5,6-trimethyl-thieno[2,3-b]pyridine-2-carboxylic acid (4-bromo-phenyl)-amide], the EC50 is above 25 µM.

Regarding `CN(C)c1ccnc2sc3c(=O)n(-c4ccccc4)cnc3c12` [Compound 159, 9-Dimethylamino-3-phenyl-3H-pyrido[3′,2′:4,5]thieno[3,2-d]pyrimidin-4-one], the EC50 is above 25 µM.

On to `COc1ccc(NC(=O)c2sc3nc(C)cc(C)c3c2N)cc1` [Compound 163, 3-Amino-4,6-dimethyl-thieno[2,3-b]pyridine-2-carboxylic acid (4-methoxy-phenyl)-amide], for which the EC50 was above 25 µM.

For `CN(C)c1ccnc2sc(C(N)=O)c(N)c12` [Compound 166, 3-Amino-4-dimethylamino-thieno[2,3-b]pyridine-2-carboxylic acid amide], the EC50 was above 25 µM.

The test is the same for the next values; noted with them: Dengue virus; Vero cells, MOI 0.1, harvested 48 hours post infection; read-out: Activity (EC50 class) against Dengue-2 Virus in Vero cells.
As for `N#Cc1cc2c(N)c(C(=O)Nc3ccc(Cl)c(Cl)c3)sc2nc1N` [Compound 129, 3,6-Diamino-5-cyano-thieno[2,3-b]pyridine-2-carboxylic acid (3,4-dichloro-phenyl)-amide], the EC50 is above 25 µM.

With `N#Cc1cc2c(N)c(C(=O)Nc3ccccc3C(F)(F)F)sc2nc1N` [Compound 130, 3,6-Diamino-5-cyano-thieno[2,3-b]pyridine-2-carboxylic acid (2-trifluoromethyl-phenyl)-amide], the EC50 is above 25 µM.

`Cc1cc(C(F)(F)F)nc2sc(C(=O)Nc3ccccc3I)c(N)c12` [Compound 131, 3-Amino-4-methyl-6-trifluoromethyl-thieno[2,3-b]pyridine-2-carboxylic acid (2-iodo-phenyl)-amide]: the EC50 was above 25 µM.

In the case of `Cc1ccc(NC(=O)c2sc3nc(C)cc(C(F)(F)F)c3c2N)nc1` [Compound 132, 3-Amino-6-methyl-4-trifluoromethyl-thieno[2,3-b]pyridine-2-carboxylic acid (5-methyl-pyridin-2-yl)-amide], the EC50 is above 25 µM.

Regarding `COC(=O)c1ccccc1NC(=O)c1sc2nc(N)c(C#N)cc2c1N` [Compound 133, 2-[(3,6-Diamino-5-cyano-thieno[2,3-b]pyridine-2-carbonyl)-amino]-benzoic acid methyl ester], the EC50 is above 25 µM.

Regarding `N#Cc1cc2c(N)c(C(=O)Nc3ccccc3F)sc2nc1N` [Compound 135, 3,6-Diamino-5-cyano-thieno[2,3-b]pyridine-2-carboxylic acid (2-fluoro-phenyl)-amide], the EC50 was above 25 µM.

As to `N#Cc1cc2c(N)c(C(=O)Nc3ccc(S(N)(=O)=O)cc3)sc2nc1N` [Compound 136, 3,6-Diamino-5-cyano-thieno[2,3-b]pyridine-2-carboxylic acid (4-sulfamoyl-phenyl)-amide], the EC50 was above 25 µM.

`CCc1nnc(NC(=O)c2sc3nc(C)cc(COC)c3c2N)s1` [Compound 137, 3-Amino-4-methoxymethyl-6-methyl-thieno[2,3-b]pyridine-2-carboxylic acid (5-ethyl-[1,3,4]thiadiazol-2-yl)-amide]: the EC50 was above 25 µM.

On to `COCc1cc(C)nc2sc(C(=O)Nc3ccc(C(C)=O)cc3)c(N)c12` [Compound 141, 3-Amino-4-methoxymethyl-6-methyl-thieno[2,3-b]pyridine-2-carboxylic acid (4-acetyl-phenyl)-amide], for which the EC50 is above 25 µM.

Regarding `CC(=O)c1cc2c(N)c(C(=O)NC34CC5CC(CC(C5)C3)C4)sc2nc1C` [Compound 142, 5-Acetyl-3-amino-6-methyl-thieno[2,3-b]pyridine-2-carboxylic acid adamantan-1-ylamide], the EC50 was above 25 µM.

Turning to `Cc1cccc(NC(=O)c2sc3nc(N)c(C#N)c(-c4ccc(C(C)C)cc4)c3c2N)c1C` [Compound 143, 3,6-Diamino-5-cyano-4-(4-isopropyl-phenyl)-thieno[2,3-b]pyridine-2-carboxylic acid (2,3-dimethyl-phenyl)-amide], the 50% effective concentration (EC50) is above 25 µM.

Turning to `Nc1c(C(=O)Nc2ccc(S(N)(=O)=O)cc2)sc2nc3c(cc12)CCC3` [Compound 144, 3-Amino-6,7-dihydro-5H-cyclopenta[b]thieno[3,2-e]pyridine-2-carboxylic acid (4-sulfamoyl-phenyl)-amide], the EC50 is above 25 µM.

As for `Cc1cc(C)c2c(N)c(C(=O)N3CCOCC3)sc2n1` [Compound 145, (3-Amino-4,6-dimethyl-thieno[2,3-b]pyridin-2-yl)-morpholin-4-yl-methanone], the EC50 was above 25 µM.

Consider `CCN1CCCC(NC(=O)c2sc3nc(C)cc(COC)c3c2N)C1` (centres unmarked) [Compound 147, 3-Amino-4-methoxymethyl-6-methyl-thieno[2,3-b]pyridine-2-carboxylic acid (1-ethyl-piperidin-3-yl)-amide], for which the concentration giving a half-maximal response (EC50) is above 25 µM.

In the case of `CCOC(=O)c1c(NC(=O)c2sc3nc(N)c(C#N)cc3c2N)sc2c1CCCC2` [Compound 148, 2-[(3,6-Diamino-5-cyano-thieno[2,3-b]pyridine-2-carbonyl)-amino]-4,5,6,7-tetrahydro-benzo[b]thiophene-3-carboxylic acid ethyl ester], the EC50 is above 25 µM.

In the case of `COCc1cc(C)nc2sc3c(=O)n(-c4ccc(C)cc4C)nnc3c12` [Compound 151, 3-(2,4-Dimethyl-phenyl)-9-methoxymethyl-7-methyl-3H-pyrido[3′,2′:4,5]thieno[3,2-d][1,2,3]triazin-4-one], the EC50 was above 25 µM.

Take `N#Cc1ccc(NC(=O)c2sc3nc(N)c(C#N)cc3c2N)cc1` [Compound 152, 3,6-Diamino-5-cyano-thieno[2,3-b]pyridine-2-carboxylic acid (4-cyano-phenyl)-amide]: the EC50 was above 25 µM.

Take `Cc1cc(C)c2c(n1)sc1c(=O)[nH]c(C)nc12` [Compound 153, 2,7,9-Trimethyl-3H-pyrido[3′,2′:4,5]thieno[3,2-d]pyrimidin-4-one]: the EC50 was above 25 µM.

For the molecule `Cc1ccc2c(n1)sc1c(=O)[nH]c(C)nc12` [Compound 154, 2,7-Dimethyl-3H-pyrido[3′,2′:4,5]thieno[3,2-d]pyrimidin-4-one], the EC50 is above 25 µM.

For the molecule `COc1cc(-c2c(C#N)c(N)nc3sc(C(N)=O)c(N)c23)cc(OC)c1OC` [Compound 155, 3,6-Diamino-5-cyano-4-(3,4,5-trimethoxy-phenyl)-thieno[2,3-b]pyridine-2-carboxylic acid amide], the EC50 is above 25 µM.

As for `COCc1cc(C)nc2sc3c(=O)n(-c4ccc(C(C)=O)cc4)nnc3c12` [Compound 156, 3-(4-Acetyl-phenyl)-9-methoxymethyl-7-methyl-3H-pyrido[3′,2′:4,5]thieno[3,2-d][1,2,3]triazin-4-one], the EC50 was above 25 µM.

Turning to `NC(=O)c1sc2nccc(Nc3ccccc3)c2c1N` [Compound 158, 3-Amino-4-phenylamino-thieno[2,3-b]pyridine-2-carboxylic acid amide], the EC50 is above 25 µM.

Regarding `CCc1c(C)nc2sc(C(N)=O)c(N)c2c1C` [Compound 160, 3-Amino-5-ethyl-4,6-dimethyl-thieno[2,3-b]pyridine-2-carboxylic acid amide], the EC50 was above 25 µM.

In the case of `NC(=O)c1sc2nc(-c3ccccc3)ccc2c1N` [Compound 161, 3-Amino-6-phenyl-thieno[2,3-b]pyridine-2-carboxylic acid amide], the EC50 is above 25 µM.

As for `COc1ccc(NC(=O)c2sc3nc(C)cc(C(F)(F)F)c3c2N)cc1` [Compound 162, 3-Amino-6-methyl-4-trifluoromethyl-thieno[2,3-b]pyridine-2-carboxylic acid (4-methoxy-phenyl)-amide], the EC50 is above 25 µM.

On to `NC(=O)c1sc2nc(-c3cccnc3)ccc2c1N` [Compound 164, 3-Amino-6-pyridin-3-yl-thieno[2,3-b]pyridine-2-carboxylic acid amide], for which the EC50 is above 25 µM.

As to `Cc1ccc(NC(=O)c2sc3nc(C)cc(C(F)(F)F)c3c2N)cc1` [Compound 165, 3-Amino-6-methyl-4-trifluoromethyl-thieno[2,3-b]pyridine-2-carboxylic acid p-tolylamide], the EC50 was above 25 µM.
